± gives the standard deviation of the averaged measurements.
Assays:
Conditions in all cases: 72 h
U2OS [1] = test: cell viability relative to DMSO; higher = less toxic
Caco-2 [2] = test: as above
Vero E6 [3] = test: as above
HepG2 [4] = test: as above
U2OS [5] = test: relative viability EC50 (midpoint between 100% and the lowest measured viability); higher = less toxic
Caco-2 [6] = test: as above
Vero E6 [7] = test: as above
HepG2 [8] = test: as above
U2OS [9] = test: drug sensitivity score (DSS) for viability; higher = more toxic; extreme values may be limits of the assay
Caco-2 [10] = test: as above
Vero E6 [11] = test: as above
HepG2 [12] = test: as above
Calu-3 [13] = test: cell viability relative to DMSO; higher = less toxic
Calu-3 [14] = test: relative viability EC50 (midpoint between 100% and the lowest measured viability); higher = less toxic
Calu-3 [15] = test: drug sensitivity score (DSS) for viability; higher = more toxic; extreme values may be limits of the assay

SMILES | cell viability (U2OS [1]; 1 nM) | cell viability (U2OS [1]; 10 nM) | cell viability (U2OS [1]; 100 nM) | cell viability (U2OS [1]; 1000 nM) | cell viability (U2OS [1]; 10000 nM) | cell viability (Caco-2 [2]; 1 nM) | cell viability (Caco-2 [2]; 10 nM) | cell viability (Caco-2 [2]; 100 nM) | cell viability (Caco-2 [2]; 1000 nM) | cell viability (Caco-2 [2]; 10000 nM) | cell viability (Vero E6 [3]; 1 nM) | cell viability (Vero E6 [3]; 10 nM) | cell viability (Vero E6 [3]; 100 nM) | cell viability (Vero E6 [3]; 1000 nM) | cell viability (Vero E6 [3]; 10000 nM) | cell viability (HepG2 [4]; 1 nM) | cell viability (HepG2 [4]; 10 nM) | cell viability (HepG2 [4]; 100 nM) | cell viability (HepG2 [4]; 1000 nM) | cell viability (HepG2 [4]; 10000 nM) | relative viability EC50 (U2OS [5]) | relative viability EC50 (Caco-2 [6]) | relative viability EC50 (Vero E6 [7]) | relative viability EC50 (HepG2 [8]) | drug sensitivity score (U2OS [9]) | drug sensitivity score (Caco-2 [10]) | drug sensitivity score (Vero E6 [11]) | drug sensitivity score (HepG2 [12]) | cell viability (Calu-3 [13]; 1 nM) | cell viability (Calu-3 [13]; 10 nM) | cell viability (Calu-3 [13]; 100 nM) | cell viability (Calu-3 [13]; 1000 nM) | cell viability (Calu-3 [13]; 10000 nM) | relative viability EC50 (Calu-3 [14]) | drug sensitivity score (Calu-3 [15])
OCc1ccc(CO)o1 [2,5-furandimethanol] | 95.4% | 104% | 96.6% | 98.5% | 99% | 89.2% | 100% | 84.4% | 95.1% | 103% | 97.1% | 94.3% | 88.2% | 94.4% | 107% | 98.6% | 97.3% | 108% | 106% | 100% | > 10 µM | > 10 µM | > 10 µM | > 10 µM | 0 | 0 | 0 | 0 |  |  |  |  |  |  | 
COc1ccc(S(=O)(=O)N2CCC[C@H]2C(=O)Nc2cc(C)cc(C)c2)cc1 | 103% | 100% | 98.1% | 102% | 99.2% | 91% | 93.1% | 98.1% | 102% | 90% | 102% | 102% | 107% | 98.4% | 99.7% | 101% | 99% | 113% | 104% | 104% | > 10 µM | > 10 µM | > 10 µM | > 10 µM | 0 | 0 | 0 | 0 |  |  |  |  |  |  | 
CCn1cc(C(=O)O)c(=O)c2ccc(-c3ccncc3)cc21 [rosoxacin] | 101% | 96.6% | 99.2% | 97.8% | 99.9% | 102% | 98% | 96.3% | 98.6% | 95.7% | 99.8% | 102% | 89.1% | 103% | 103% | 94.7% | 97.8% | 97.5% | 94.6% | 111% | > 10 µM | > 10 µM | > 10 µM | > 10 µM | 0 | 0 | 0 | 0 |  |  |  |  |  |  | 
Cn1c(N2CCCCS2(=O)=O)nc(C(=O)NCc2ccc(F)cc2)c(O)c1=O | 94.3% | 100% | 94.5% | 93.7% | 54.9% | 85.9% | 88.6% | 88.9% | 92.7% | 81.1% | 103% | 96.6% | 100% | 102% | 85.4% | 103% | 96.9% | 105% | 106% | 46.9% |  | > 10 µM | > 10 µM | 3.68 µM | 3.4 | 0 | 0.1 | 2.4 | 98.4% | 89.8% | 95.6% | 102% | 97.4% | > 10 µM | 0
CSc1nc(NC2CCCC2)c([N+](=O)[O-])c(NC2CCCC2)n1 | 102% | 103% | 98.9% | 106% | 97.2% | 99% | 97% | 102% | 93.7% | 95.7% | 110% | 98.3% | 107% | 96.4% | 97% |  |  |  |  |  | > 10 µM | > 10 µM | > 10 µM |  | 0 | 0 | 0 |  | 94.6% | 94.2% | 106% | 96.9% | 90.1% | > 10 µM | 0
CN1CCc2cc3c(cc2[C@H]1[C@@H]1OC(=O)c2c1ccc1c2OCO1)OCO3 [bicuculline-(+)] | 97.4% | 96.1% | 97.6% | 99.5% | 99.8% | 93.2% | 86.7% | 96.4% | 96.5% | 100% | 95.2% | 98.6% | 94.7% | 102% | 104% | 91.1% | 98.3% | 88.8% | 97.8% | 106% | > 10 µM | > 10 µM | > 10 µM | > 10 µM | 0 | 0 | 0 | 0 |  |  |  |  |  |  | 
N#Cc1cccc(-c2nc(-c3cccnc3)no2)c1 [NS-9283] | 100% | 101% | 97.1% | 98.6% | 99.7% | 91.1% | 94.4% | 90.9% | 95% | 93.1% | 99.1% | 98.7% | 101% | 102% | 99.7% | 105% | 97.2% | 104% | 101% | 98.8% | > 10 µM | > 10 µM | > 10 µM | > 10 µM | 0 | 0 | 0 | 0 |  |  |  |  |  |  | 
CO/N=C(\C(=O)N[C@@H]1C(=O)N2C(C(=O)O)=C(COC(N)=O)CS[C@H]12)c1ccco1 [CEFUROXIME SODIUM] | 97.3% | 95% | 96.8% | 98.7% | 103% | 106% | 90.6% | 98.6% | 107% | 99.4% | 101% | 95.6% | 97.6% | 95.1% | 110% | 97.7% | 109% | 95.4% | 97.8% | 103% | > 10 µM | > 10 µM | > 10 µM | > 10 µM | 0 | 0 | 0 | 0 |  |  |  |  |  |  | 
Cc1c[nH]c2ncnc(N3CCC(CN)(C(=O)Nc4cccc(OC(=O)N(C)C)c4)CC3)c12 [LX7101] | 98% | 97.4% | 98.5% | 94% | 70.9% | 88.3% | 97.8% | 98.9% | 96% | 82.4% | 93.2% | 100% | 92.4% | 102% | 112% | 99.8% | 99.2% | 101% | 102% | 86.4% |  | > 10 µM | > 10 µM | > 10 µM | 2.2 | 0.9 | 0 | 0.1 | 82.4% | 99.4% | 110% | 125% | 114% | > 10 µM | 0
C[C@H](CCC(=O)O)[C@H]1CC[C@H]2[C@@H]3C(=O)C[C@@H]4CC(=O)CC[C@]4(C)[C@H]3CC(=O)[C@]12C [dehydrocholate-acid] | 101 ± 2.8% | 96.9 ± 2.8% | 98.3 ± 1.3% | 96 ± 2.3% | 97.6 ± 0.14% | 95.5 ± 1.1% | 84 ± 19% | 96.2 ± 5.6% | 94.2 ± 6.7% | 93.2 ± 16% | 97.8 ± 0.57% | 102 ± 5.9% | 91.2 ± 6.6% | 94 ± 8% | 103 ± 7.6% | 95.8 ± 7.3% | 102 ± 5.5% | 95.05 ± 0.21% | 103 ± 1.1% | 102 ± 7.3% | > 10 µM | > 10 µM | > 10 µM | > 10 µM | 0 | 0 | 0 | 0 |  |  |  |  |  |  | 
CCOC(=O)c1c(O)nc2cccc3c2c1-c1ccccc1C3=O [NQDI-1] | 95.6% | 101% | 102% | 97.7% | 101% | 89.6% | 103% | 89.7% | 92.9% | 98.3% | 104% | 103% | 102% | 95.9% | 94% | 106% | 102% | 98.4% | 76% | 57.2% | > 10 µM | > 10 µM | > 10 µM |  | 0 | 0 | 0 | 5 | 91.5% | 96.8% | 95.7% | 95.2% | 104% | > 10 µM | 0
O=C(CN1CCN(C(=O)c2ccco2)CC1)Nc1cc(C(F)(F)F)ccc1Cl [ML348] |  |  |  |  |  | 96.3% | 89% | 97% | 96.1% | 91.1% | 98.4% | 98.8% | 94% | 98.3% | 94.6% | 96.9% | 98% | 93.1% | 106% | 104% |  | > 10 µM | > 10 µM | > 10 µM |  | 0 | 0 | 0 | 118% | 95.7% | 102% | 104% | 95.5% | > 10 µM | 0
O=C(O)c1ccc(Nc2ncc3c(n2)-c2ccc(Cl)cc2C(c2c(F)cccc2F)=NC3)cc1 [MLN8054] | 103% | 105% | 100% | 90% | 76.7% | 94.4% | 100% | 87% | 82% | 82.5% | 103% | 97.9% | 104% | 91.7% | 82.7% | 109% | 108% | 96.7% | 73.2% | 62.3% | > 10 µM | > 10 µM | > 10 µM |  | 2 | 3.3 | 1.1 | 5.1 | 96.2% | 96.2% | 112% | 91.3% | 86.8% | > 10 µM | 0.6
Cc1nc2c(OCc3ccccc3)cccn2c1CC#N | 98% | 102% | 100% | 95.3% | 98.2% | 97.9% | 91.1% | 107% | 100% | 93.6% | 92.4% | 93.3% | 95.8% | 95.1% | 103% | 106% | 107% | 95.9% | 106% | 97.5% | > 10 µM | > 10 µM | > 10 µM | > 10 µM | 0 | 0 | 0 | 0 |  |  |  |  |  |  | 
CCN1CCN(C(=O)N[C@@H](C(=O)N[C@@H]2C(=O)N3[C@@H]2SC(C)(C)[C@@H]3C(=O)O)c2ccccc2)C(=O)C1=O [piperacillin] | 97% | 94% | 93.9% | 102% | 103% | 93.8% | 91.1% | 97.8% | 103% | 106% | 97.2% | 99.1% | 97.7% | 96.5% | 110% | 114% | 113% | 104% | 103% | 95.5% | > 10 µM | > 10 µM | > 10 µM | > 10 µM | 0 | 0 | 0 | 0 |  |  |  |  |  |  | 
